From article PMC2801808 (Journal of medicinal chemistry, 2009)

Experiments:
calpain 2 = target: T1, calpain 2 (Sus scrofa, UniProt A6YNL5); test: Calpain 2 inhibition; assay type: biochemical, porcine
T1 sequence (A6YNL5 1-700): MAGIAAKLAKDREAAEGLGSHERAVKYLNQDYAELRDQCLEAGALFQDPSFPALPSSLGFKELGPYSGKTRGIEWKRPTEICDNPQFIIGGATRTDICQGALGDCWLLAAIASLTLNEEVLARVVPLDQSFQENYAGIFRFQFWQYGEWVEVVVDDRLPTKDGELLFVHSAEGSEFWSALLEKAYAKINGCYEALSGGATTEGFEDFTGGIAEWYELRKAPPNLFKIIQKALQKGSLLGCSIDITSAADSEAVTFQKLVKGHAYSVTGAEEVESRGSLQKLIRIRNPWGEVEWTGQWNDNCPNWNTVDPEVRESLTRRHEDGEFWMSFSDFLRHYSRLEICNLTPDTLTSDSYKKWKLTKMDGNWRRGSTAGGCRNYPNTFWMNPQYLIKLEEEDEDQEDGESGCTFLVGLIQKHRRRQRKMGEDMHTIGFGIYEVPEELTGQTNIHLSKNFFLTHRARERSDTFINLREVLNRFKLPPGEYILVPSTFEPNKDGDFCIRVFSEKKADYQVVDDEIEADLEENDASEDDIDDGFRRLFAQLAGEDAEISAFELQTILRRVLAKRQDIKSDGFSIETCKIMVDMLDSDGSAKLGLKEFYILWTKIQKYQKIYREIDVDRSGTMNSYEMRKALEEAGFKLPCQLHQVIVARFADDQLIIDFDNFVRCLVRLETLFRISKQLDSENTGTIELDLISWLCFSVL
T1 sequence (P04574 1-266 partner): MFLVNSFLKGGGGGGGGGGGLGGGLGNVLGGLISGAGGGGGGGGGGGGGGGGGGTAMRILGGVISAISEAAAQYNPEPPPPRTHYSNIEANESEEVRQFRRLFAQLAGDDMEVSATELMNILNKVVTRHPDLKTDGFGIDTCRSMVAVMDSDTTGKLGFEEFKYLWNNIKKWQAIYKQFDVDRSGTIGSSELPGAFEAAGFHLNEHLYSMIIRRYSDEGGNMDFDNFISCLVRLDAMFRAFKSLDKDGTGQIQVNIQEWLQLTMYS

[1] = tested on: state 3 respiration of renal cortical mitochondria; test: Ca2+-induced attenuation of state 3 respiration in isolated mitochondria; parameters: species or system rabbit; conditions: 10 μM pretreatment, then Ca2+ 1 μM for 5 min
NDUFV2 cleavage = test: Ca2+-induced cleavage of complex I subunit NDUFV2 in isolated mitochondria; parameters: species or system rabbit; conditions: 10 μM pretreatment, then Ca2+ 1 μM for 5 min
purified calpain 1 = target: T2, purified calpain 1 (Homo sapiens, UniProt P07384); test: Calpain 1 activity, sLLVY-AMC hydrolysis with purified calpain 1; assay type: biochemical
T2 sequence (P07384 1-714): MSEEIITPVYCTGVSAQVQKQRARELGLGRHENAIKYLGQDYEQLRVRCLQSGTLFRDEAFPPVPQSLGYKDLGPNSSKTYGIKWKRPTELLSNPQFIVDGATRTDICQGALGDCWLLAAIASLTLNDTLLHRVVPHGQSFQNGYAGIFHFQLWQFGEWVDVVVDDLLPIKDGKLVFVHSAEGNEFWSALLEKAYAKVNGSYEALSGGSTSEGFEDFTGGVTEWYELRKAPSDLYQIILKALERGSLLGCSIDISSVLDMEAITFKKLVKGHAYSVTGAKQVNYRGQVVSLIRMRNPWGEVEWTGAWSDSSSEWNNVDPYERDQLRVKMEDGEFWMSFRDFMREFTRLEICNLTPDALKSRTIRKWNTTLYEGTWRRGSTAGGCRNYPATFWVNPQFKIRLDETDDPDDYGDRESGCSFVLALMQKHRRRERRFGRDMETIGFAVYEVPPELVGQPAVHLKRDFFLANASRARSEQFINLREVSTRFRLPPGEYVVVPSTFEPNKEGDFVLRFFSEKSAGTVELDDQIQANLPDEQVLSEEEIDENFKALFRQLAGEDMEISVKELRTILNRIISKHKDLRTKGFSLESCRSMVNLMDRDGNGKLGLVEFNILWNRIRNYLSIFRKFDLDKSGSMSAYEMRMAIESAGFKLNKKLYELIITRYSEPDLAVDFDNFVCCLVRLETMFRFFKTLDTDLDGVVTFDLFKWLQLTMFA
T2 sequence (P04632 1-268 partner): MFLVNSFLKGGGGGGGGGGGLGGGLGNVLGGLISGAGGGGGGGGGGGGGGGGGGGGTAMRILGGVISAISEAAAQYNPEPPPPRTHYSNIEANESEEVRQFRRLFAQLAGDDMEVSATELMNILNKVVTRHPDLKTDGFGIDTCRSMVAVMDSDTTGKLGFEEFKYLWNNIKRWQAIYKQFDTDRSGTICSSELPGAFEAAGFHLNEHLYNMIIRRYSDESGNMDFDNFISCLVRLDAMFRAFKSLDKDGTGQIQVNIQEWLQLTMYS

calpain = conditions: cited from earlier work
[2] = no reference given; cited from earlier work

SMILES	selectivity for calpain over cathepsin B (calpain)	thiol pKa [2]	other results
CCCC[C@@H](C=O)NC(=O)[C@H](CC(C)C)NC(=O)OCc1ccccc1 [Calpeptin, Z-Leu-Nle-CHO]	–	–	IC50 (calpain 2): ~60 nM; Ca2+-induced attenuation of state 3 respiration [1]: blocked; Ca2+-induced cleavage of complex I subunit NDUFV2 (NDUFV2 cleavage): blocked; IC50 (purified calpain 1): ~40 nM
O=C(O)/C(S)=C/c1c[nH]c2ccc(F)cc12 [PD151746]	600 fold	–	–
CCS [ethanethiol]	–	10.61	–
COc1ccc(S)cc1 [methoxythiophenol]	–	6.8	–
O=C(O)/C(S)=C/c1ccc(I)cc1 [PD150606]	600 fold	–	–
